Test systems include NCI-H522 lung; MOLT-4 leukemia; A498 renal; BT-549 breast; KM12 colon; 786-0 renal; K-562 leukemia; TK-10 renal; OVCAR-3 ovarian; HOP-92 NSCLC.
Assay in all cases: NCI tumour cell line growth inhibition, 48 h

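Cells were grown in 96-well plates and exposed to each compound for 48 hours at five concentrations; endpoints were interpolated linearly between bracketing concentrations, or set to the highest concentration if not reached. GI50: concentration for 50% inhibition of growth. At the TGI there is no net growth.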

Consider `O=C1C(Cl)=C(Nc2cc(Cl)ccc2O)C(=O)N1Cc1ccccc1`, for which the GI50 was 15.1 µM in the test with NCI-H522 lung; 29.7 µM in the test with MOLT-4 leukemia; 19.7 µM in the test on A498 renal; 20.5 µM in the test on BT-549 breast; 22 µM in the test with KM12 colon; 18.2 µM with 786-0 renal. Also, the GI50 is 23.7 µM in the test with K-562 leukemia, 21.4 µM in the test on TK-10 renal and 18.6 µM with OVCAR-3 ovarian. The TGI was 30.5 µM in the test with NCI-H522 lung; greater than 81.9 µM in the test with MOLT-4 leukemia; 35.7 µM in the test with A498 renal; 44.3 µM with BT-549 breast; 48.2 µM in the test with KM12 colon; 33 µM with 786-0 renal. Also, the values for the TGI with K-562 leukemia, in the test with TK-10 renal and in the test on OVCAR-3 ovarian were 65.3 µM, 42.9 µM and 35.8 µM, respectively.

For `CCn1cc(C(=O)N/N=C/c2cccs2)c(=O)c2cc(F)c(N3CCNC(C)C3)c(F)c21` (centres undefined), the GI50 with HOP-92 NSCLC is 1.09 µM; with A498 renal it was 3.64 µM; in the test on BT-549 breast, 12.3 µM; in the test on KM12 colon, 1.73 µM; in the test with 786-0 renal, 1.8 µM; in the test with TK-10 renal, 1.72 µM. In the test on OVCAR-3 ovarian, the GI50 is 1.8 µM. Further, the TGI with HOP-92 NSCLC turned out to be 2.38 µM; in the test with A498 renal, 21.1 µM; in the test on BT-549 breast it was 36.9 µM; with KM12 colon it was 3.27 µM; in the test with 786-0 renal, 3.38 µM; in the test on TK-10 renal it was 3.25 µM. Further, the TGI in the test with OVCAR-3 ovarian amounted to 3.35 µM.

On to `O=C(COC(=O)c1cccc2c(=O)c3ccccc3[nH]c12)Nc1ccc(Cl)cc1`, for which the TGI was greater than 100 µM in the test on NCI-H522 lung; greater than 100 µM in the test on MOLT-4 leukemia; greater than 100 µM in the test with HOP-92 NSCLC; 60 µM with A498 renal; greater than 100 µM in the test with KM12 colon; greater than 100 µM with 786-0 renal. The TGI in the test with K-562 leukemia is greater than 100 µM; with TK-10 renal it was 46.5 µM; in the test with OVCAR-3 ovarian, greater than 100 µM.

As for `C[C@@]1(C(=O)O)CCC[C@]2(C)C1CC[C@]13C[C@@](O)(CO)[C@](O)(CC[C@]12O)C3` (some centres undefined), the GI50 is greater than 100 µM in the test on NCI-H522 lung; greater than 100 µM in the test on MOLT-4 leukemia; 75.1 µM with A498 renal; greater than 100 µM in the test on BT-549 breast; greater than 100 µM in the test with KM12 colon; greater than 100 µM in the test with 786-0 renal. Moreover, the GI50 with K-562 leukemia, with TK-10 renal and in the test with OVCAR-3 ovarian was greater than 100 µM each time. Moreover, the TGI with NCI-H522 lung, with MOLT-4 leukemia, in the test with A498 renal, with BT-549 breast, in the test with KM12 colon and in the test with 786-0 renal was greater than 100 µM throughout. Further, the TGI in the test on K-562 leukemia, in the test with TK-10 renal and in the test on OVCAR-3 ovarian was greater than 100 µM throughout.

For `CN(C)CCNC(=O)c1cccc2c1Oc1cccc([N+](=O)[O-])c1O2`, the TGI was 32.9 µM in the test on NCI-H522 lung; 27.1 µM in the test with MOLT-4 leukemia; 30.5 µM in the test on A498 renal; 33.6 µM with BT-549 breast; 44.7 µM in the test on KM12 colon; 42.6 µM with 786-0 renal. The TGI in the test with K-562 leukemia is 45.5 µM; with TK-10 renal it was greater than 100 µM; with OVCAR-3 ovarian it was 49.7 µM.

Regarding `COc1cc2c3c(n([C@@H]4CCOC4)c(=O)c2cc1OC)-c1cc2c(cc1C3=O)OCO2`, the GI50 in the test with NCI-H522 lung is less than 0.01 µM; in the test with MOLT-4 leukemia it was less than 0.01 µM; with BT-549 breast it was 0.0218 µM; in the test with 786-0 renal, less than 0.01 µM; in the test on K-562 leukemia it was 0.0166 µM; with TK-10 renal it was greater than 100 µM. For the same compound, the TGI with NCI-H522 lung was greater than 100 µM; with MOLT-4 leukemia, greater than 100 µM; in the test on BT-549 breast, greater than 100 µM; with 786-0 renal, 0.0183 µM; with K-562 leukemia, greater than 100 µM; with TK-10 renal, greater than 100 µM.

For the compound `COc1ccc(NC(=O)c2oc3cc(O)ccc3c(=O)c2C)c([N+](=O)[O-])c1`, the TGI with NCI-H522 lung, in the test with MOLT-4 leukemia, with HOP-92 NSCLC, in the test on A498 renal, in the test on KM12 colon and in the test on 786-0 renal was greater than 100 µM in each case. The TGI in the test on K-562 leukemia, with TK-10 renal and in the test on OVCAR-3 ovarian was greater than 100 µM throughout.

For `O=C1C(Cl)=C(Cl)C(=O)N1c1cccc(C(F)(F)F)c1`, the TGI was 26.4 µM in the test with NCI-H522 lung; greater than 86.6 µM with MOLT-4 leukemia; greater than 100 µM in the test with HOP-92 NSCLC; greater than 100 µM with A498 renal; greater than 100 µM in the test with KM12 colon; greater than 100 µM in the test on 786-0 renal. In addition, the TGI in the test on K-562 leukemia, with TK-10 renal and in the test on OVCAR-3 ovarian was greater than 100 µM throughout.

Consider `C(=C\c1ccncc1)/c1ccncc1`, for which the GI50 was greater than 100 µM in the test on MOLT-4 leukemia; 74.9 µM in the test on HOP-92 NSCLC; 10 µM with A498 renal; greater than 100 µM in the test on BT-549 breast; greater than 100 µM in the test with KM12 colon; greater than 100 µM with 786-0 renal. For the same compound, the GI50 with K-562 leukemia, in the test on TK-10 renal and in the test on OVCAR-3 ovarian was greater than 100 µM in each case. The TGI with MOLT-4 leukemia, in the test on HOP-92 NSCLC, in the test with A498 renal, in the test on BT-549 breast, in the test on KM12 colon and with 786-0 renal was greater than 100 µM in each case. In addition, the TGI with K-562 leukemia, in the test with TK-10 renal and with OVCAR-3 ovarian was greater than 100 µM throughout.

Turning to `O=C1c2ccn(CCCNC(CO)(CO)CO)c2C(=O)c2c1c(O)c1ccccc1c2O`, the GI50 with NCI-H522 lung is 12.9 µM; in the test with MOLT-4 leukemia it was 2.54 µM; in the test on HOP-92 NSCLC, 40 µM; in the test with BT-549 breast it was 43.9 µM; in the test on KM12 colon, 11.1 µM; with 786-0 renal it was 7.94 µM. Moreover, the GI50 in the test on K-562 leukemia was 9.36 µM; in the test with TK-10 renal, 1.32 µM; in the test with OVCAR-3 ovarian it was 6.71 µM. Besides, the TGI with NCI-H522 lung was 46.6 µM; with MOLT-4 leukemia it was greater than 37.2 µM; with HOP-92 NSCLC it was greater than 86.9 µM; with BT-549 breast, greater than 90.2 µM; in the test on KM12 colon, 25.7 µM; in the test with 786-0 renal, 26.9 µM. The TGI in the test with K-562 leukemia is 90.1 µM; in the test with TK-10 renal it was 22.6 µM; in the test on OVCAR-3 ovarian, 21.6 µM.

The values are drawn from PubChem BioAssay (NCI).
